One data set concerns osteosarcoma U2OS. As to the kind of experiment: Cytotoxicity test (sulphorodamine B), U2OS. It is filed as cell-based. The conditions noted are these: Homo sapiens, 24 h incubation, survival 48 h after removal. The text has this: (§1) Different cell lines deriving from solid tumors were also used. • 1. Human prostate carcinoma PC3 and DU145. These cell lines were maintained in RPMI 1640 medium containing 10% FCS, 1% sodium pyruvate and 1% glutamine; • 2. Human colon adenocarcinoma LoVo. This cell line was maintained in HAM's F-12 medium, containing 10% FCS and 1% glutamine. • 3. Human ovarian carcinoma such as A2780 and A2780/Dx, sensitive and resistant to drugs, respectively (doxorubicin, taxol, etoposide, vincristine); IGROV-1 and IGROV-1/Pt, sensitive and resistant to platinum-based chemotherapy, respectively, were maintained in RPMI 1640 medium containing 10% FCS, 1% sodium pyruvate and 1% glutamine; • 4. Human melanoma MeWo and MeS 2.21, glioblastoma GBM, no small cell lung carcinomas A431, NCI—H460, osteosarcomas SAOS and U2OS were maintained in RPMI 1640 medium containing 10% FCS, 1% sodium pyruvate and 1% glutamine.
(§2) The cytotoxicity tests were carried out using NB4 or HL-60 cells in suspension (10000/well). The cells were seeded in a volume of 250 μl in 96 well plates and incubated for 24 hours at 37° C. […] The optical density was measured using a Multiskan spectrophotometer at 540 nm. […]
(§3) Cell survival was determined by incubation with ST1926 for 24 hours, 48 hours after the removal of the compound. […]

The subject of data set [1] is 3LL murine Lewis lung carcinoma. Description: Antitumoral activity in murine Lewis lung carcinoma model 3LL. As to conditions: 10 mg/kg po, qdx5x3w. Format: in vivo, C57BL/6J mice. As to the method: Murine pulmonary adenocarcinoma Madison 109 cells (M109) were maintained by s.c. passage of tumor fragments. The day of inoculation, the cell suspension was injected i.m. in the rear left limb of a 20 g male BALB/c mouse at a density of 3×10^5 cells/mouse. 3LL murine Lewis lung carcinoma was routinely maintained by i.m. passages (every 10-14 days) of 1×10^5 cells/mouse in C57BL/6J mice. For antitumor activity experiments, tumors were excised from donor mice and after mechanical desegregation and enzymatic digestion tumor cell viability was assessed by the trypan blue dye exclusion test. Then, 1×10^5 cells/100 μl/mouse were injected i.m. into the right hind leg muscle of C57BL/6J mice.
Tumor dimension measurements were performed using a digital calliper (Vernier Caliper) from the day in which the mass became measurable, twice weekly. The tumor mass was assessed from the size of the two principal dimensions (length and breadth), expressed in mm, applying the formula (length×breadth^2)/2 that is, the tumor volume in mm3. For every experimental group the percentage of inhibition of tumor volume (TVI %) was calculated, with respect to that of the control that is (100−(T/C %). TVI was evaluated 2 days after the final administration of ST1926.
The mean survival time (MST) was also measured and the increase in mean life-span expressed as ILS % (increase of life span) calculated as (MSTT/MSTC)×100−100.
The comparison between the values of TVI and of survival time, obtained for each group were performed with the non parametric Mann Whitney test for non paired data, using the Instat software from GraphPad inc. […]
The mice (8 for each group) were weighed prior to each treatment, firstly, so as to be able to administer the correct quantity of substance, based on the eventual variations in weight observed throughout the period of drug administration, and also to be able to register the maximum weight loss throughout the treatment (BWL % max).

Data set [2] has as its system chicken chorioallantoic membrane vessels, bFGF induced. As to the kind of experiment: Angiostatic activity in chicken chorioallantoic membrane (CAM) model. Format: in vivo. As to conditions: bFGF 0.05 + compound 0.25 μg/embryo. From the text: The chicken chorioallantoic membrane is a very vascularised membrane in which the vessels make their appearance at the 4th day of development, develop an arteriovenal system by the 8th day of development, and actively proliferate until the 11th day.
The aim of the study was to follow vasal development in the CAM under basal conditions and in the presence of an inducer bFGF (basic Fibroblast Growth Factor) of vasoproliferation. This study used chicken embryonal eggs at the initial stage of their development. On the 3rd day of development an operation to open the shells was performed to make the vessels of the CAM visible. The treatment was administered on the 9th day of development by applying a fragment of sterile gelatine (GELFOAM Pharmacia-Upjohn) about 1 mm^3, to the CAM surface, onto which was administered the bFGF (50 ng/embryo) or the products in question, for 3 consecutive days.
The evaluation of the effect of the molecule on vasoproliferation was obtained by a comparison of the vessels at the time of zero treatment with these of later times (12th day).

The next data set deals with osteosarcoma SAOS. Description: Cytotoxicity test (sulphorodamine B), SAOS. It is filed as cell-based. The conditions noted are these: Homo sapiens, 24 h incubation, survival 48 h after removal.
Text: as §1, §2, §3

The subject of data set [3] is no small cell lung carcinoma A431. As to the kind of experiment: Cytotoxicity test (sulphorodamine B), A431. Format: cell-based. The conditions noted are these: Homo sapiens, A-431, 24 h incubation, survival 48 h after removal.
Text: as §1, §2, §3

The test system of another data set is Human melanoma MeWo. As to the kind of experiment: Cytotoxicity test (sulphorodamine B), MeWo. Format: cell-based. As to conditions: 24 h incubation, survival 48 h after removal.
Text: as §1, §2, §3

As a reminder, the IC50 is the point on the concentration scale where inhibition reaches its midpoint. A low value points to higher potency.

Consider `O=C(O)/C=C/c1ccc(-c2ccc(O)c(C34CC5CC(CC(C5)C3)C4)c2)cc1` [ST1926, E-4-(3-(1-adamantyl)-4-hydroxyphenyl)cinnamic acid], for which the IC50 with osteosarcoma U2OS was 260 nM; in the data set with osteosarcoma SAOS, 250 nM; in data set [3], 250 nM; in the data set on Human melanoma MeWo, 230 nM. In addition, the “BWL % Max” value in data set [1] turned out to be 7%. In data set [1], the ILS % was found to be 52%. In addition, the “MST (range days)” value in data set [1] is “*32 (24-42) days”. For the same molecule, in data set [2], the “Δvessels, change vs bFGF alone” value was “(−53%)”. Moreover, the “12th day (72 hours), number of vessels per sponge” value in data set [2] (mean ± SE) is listed as 12 ± 2 vessels per sponge. Also, the Δvessels in data set [2] (mean ± SE) was 9 ± 2 vessels per sponge.

The record behind these values is patent publication US7449495B2, “Retinoid derivatives with antiangiogenic, antitumoral and proapoptotic activities” (Sigma-Tau Industrie Farmaceutiche Riunite S.p.A., priority 2001, dated 2008).
